Tests used:
[1] = cited from earlier work
[2] = cited from earlier work; remark: listed apart in the source
[3] = system: fungi; assay: Antifungal activity compared with traditional veterinary antifungal compounds; details: fold versus clotrimazole, miconazole, nystatin
Description: The antifungal drug preferably is posaconazole, a drug with 10-400× the antifungal activity of traditional antifungal compounds used in veterinary medicine such as clotrimazole, miconazole, nystatin. It will be the first use of a triazole antifungal in veterinary medicine. The combination for this proposed otic product is new. The product requires only one application per day. In summary, the justification for use of the centralized procedure is: • Novel antibiotic in an otic preparation with none of the ototoxicity of the aminoglycosides often used in such products; • Novel, corticosteroid, with a better safety profile when compared other corticosteroids used in otic preparations; • Potent triazole anti-fungal drug; • Novel combination of the three drugs described above; • Single daily application.

| SMILES | partition coefficient between octanol and water [1] | solubility in acetone ([2]; acetone) | solubility in chloroform ([2]; chloroform) | solubility in ethanol ([2]; ethanol) | solubility in isopropanol ([2]; isopropanol) | solubility in methanol ([2]; methanol) | solubility in tetrahydrofuran ([2]; tetrahydrofuran) | solubility in water ([2]; water) | antifungal activity relative to traditional antifungal compounds [3] |
| --- | --- | --- | --- | --- | --- | --- | --- | --- | --- |
| C[C@@H]1C[C@H]2[C@@H]3CCC4=CC(=O)C=C[C@]4(C)[C@@]3(Cl)[C@@H](O)C[C@]2(C)[C@@]1(OC(=O)c1ccco1)C(=O)CCl [Mometasone Furoate, 9,21-Dichloro-11(beta),17-dihydroxy-16(alpha)-methylpregna-1,4-diene-3,20-dione 17-(2 Furoate)] | greater than 5000 | soluble | soluble | slightly soluble | slightly soluble | slightly soluble | freely soluble | practically insoluble | – |
| CC[C@@H]([C@H](C)O)n1ncn(-c2ccc(N3CCN(c4ccc(OC[C@@H]5CO[C@@](Cn6cncn6)(c6ccc(F)cc6F)C5)cc4)CC3)cc2)c1=O [posaconazole] | – | – | – | – | – | – | – | – | 10-400 × |
